From US9738673B1, “Ferrocene derivative, preparation method and use thereof” (XIAMEN INSTITUTE OF RARE EARTH MATERIALS, priority 2016, dated 2017) come the findings set out here.

For experiment [1], the system named is human lung cancer cell line A549. The experiment can be described thus: In vitro anticancer activity MTT assay, A549. Type of experiment: cell-based. To be noted: 48 h, A549 cells. The procedure:
(§1) Using a wavelength-tunable microplate reader absorbance value (A595) was measured at 595 nm. Inhibitory ratio was calculated with the following formula: […]
(§2) wherein, IC50 values were calculated using the GraphPad Prism 5 software.
For orientation: Formazan colour is commonly taken as a measure of viable cells.

The test system of experiment [2] is colorectal cancer cell line HCT-116. Description: In vitro anticancer activity MTT assay, HCT116. Format: cell-based, human. To be noted: 48 h, HCT116 cells. The procedure:
as §1, §2

The subject of experiment [3] is breast cancer cell line MCF-7. The experiment can be described thus: In vitro anticancer activity MTT assay, MCF-7. Type of experiment: cell-based, human. To be noted: 48 h, MCF-7 cells. The procedure: as §1, §2

As to `COc1cccc(-c2cc(COC(=O)[c-]3cccc3)on2)c1.COc1cccc(-c2cc(COC(=O)[c-]3cccc3)on2)c1.[Fe+2]` [YJP-8], the IC50 (commonly the concentration at which inhibition is half-maximal) in experiment [1] was 142 µM; in experiment [2], 236 µM; in experiment [3], 138 µM.

With `O=C(OCc1cc(-c2ccc(Cl)cc2Cl)no1)[c-]1cccc1.O=C(OCc1cc(-c2ccc(Cl)cc2Cl)no1)[c-]1cccc1.[Fe+2]` [YJP-15], the IC50 in experiment [1] amounted to 222 µM; in experiment [2] it was 234 µM; in experiment [3] it was 190 µM.

With `O=C(OCc1cc(-c2ccc(F)cc2)no1)[c-]1cccc1.O=C(OCc1cc(-c2ccc(F)cc2)no1)[c-]1cccc1.[Fe+2]` [YJP-11], the concentration for half-maximal inhibition (IC50) was determined as 2860 µM in experiment [1] and 138 µM in experiment [3].

With `Cc1ccc(-c2cc(COC(=O)[c-]3cccc3)on2)cc1.Cc1ccc(-c2cc(COC(=O)[c-]3cccc3)on2)cc1.[Fe+2]` [YJP-2], the IC50 in experiment [1] turned out to be 198 µM; in experiment [2], 220 µM; in experiment [3] it was 136 µM.

In the case of `O=C(OCc1cc(-c2ccc([N+](=O)[O-])cc2)no1)[c-]1cccc1.O=C(OCc1cc(-c2ccc([N+](=O)[O-])cc2)no1)[c-]1cccc1.[Fe+2]` [YJP-19], the IC50 in experiment [1] came to 530 µM; in experiment [2], 157 µM; in experiment [3], 178 µM.

As for `O=C(OCc1cc(-c2ccc(Cl)cc2)no1)[c-]1cccc1.O=C(OCc1cc(-c2ccc(Cl)cc2)no1)[c-]1cccc1.[Fe+2]` [YJP-13], the IC50 was determined as 690 µM in experiment [1], 486 µM in experiment [2] and 169 µM in experiment [3].

As to `Cc1cc(C)c(-c2cc(COC(=O)[c-]3cccc3)on2)c(C)c1.Cc1cc(C)c(-c2cc(COC(=O)[c-]3cccc3)on2)c(C)c1.[Fe+2]` [YJP-5], the IC50 in experiment [1] is 189 µM; in experiment [3], 142 µM.

Consider `CCc1ccc(-c2cc(COC(=O)[c-]3cccc3)on2)cc1.CCc1ccc(-c2cc(COC(=O)[c-]3cccc3)on2)cc1.[Fe+2]` [YJP-3], for which the IC50 in experiment [3] was 86.8 µM.

For the compound `COc1ccc(-c2cc(COC(=O)[c-]3cccc3)on2)cc1.COc1ccc(-c2cc(COC(=O)[c-]3cccc3)on2)cc1.[Fe+2]` [YJP-6], in experiment [3], the 50% inhibitory concentration (IC50) came out at 182 µM.

`O=C(OCc1cc(-c2ccccc2F)no1)[c-]1cccc1.O=C(OCc1cc(-c2ccccc2F)no1)[c-]1cccc1.[Fe+2]` [YJP-12]: the IC50 in experiment [1] turned out to be 168 µM; in experiment [2], 149 µM; in experiment [3], 159 µM.

In the case of `O=C(OCc1cc(-c2ccccc2)no1)[c-]1cccc1.O=C(OCc1cc(-c2ccccc2)no1)[c-]1cccc1.[Fe+2]` [YJP-1], the IC50 in experiment [1] was found to be 252 µM; in experiment [3] it was 990 µM.

For `COc1ccccc1-c1cc(COC(=O)[c-]2cccc2)on1.COc1ccccc1-c1cc(COC(=O)[c-]2cccc2)on1.[Fe+2]` [YJP-7], the figures for the IC50 in experiment [1] and in experiment [3] were 868 µM and 157 µM, respectively.

Take `O=C(OCc1cc(-c2ccc(C(F)(F)F)cc2)no1)[c-]1cccc1.O=C(OCc1cc(-c2ccc(C(F)(F)F)cc2)no1)[c-]1cccc1.[Fe+2]` [YJP-9]: inhibition in experiment [3] was half-maximal at 133 µM (IC50).

Regarding `O=C(OCc1cc(-c2ccccc2Cl)no1)[c-]1cccc1.O=C(OCc1cc(-c2ccccc2Cl)no1)[c-]1cccc1.[Fe+2]` [YJP-14], the figures for the IC50 in experiment [1], in experiment [2] and in experiment [3] were 450 µM, 228 µM and 172 µM, respectively.

On to `CC(C)(C)c1ccc(-c2cc(COC(=O)[c-]3cccc3)on2)cc1.CC(C)(C)c1ccc(-c2cc(COC(=O)[c-]3cccc3)on2)cc1.[Fe+2]` [YJP-4], for which the IC50 is 220 µM in experiment [1], 2180 µM in experiment [2] and 150 µM in experiment [3].

Turning to `O=C(OCc1cc(-c2ccc(Br)cc2)no1)[c-]1cccc1.O=C(OCc1cc(-c2ccc(Br)cc2)no1)[c-]1cccc1.[Fe+2]` [YJP-16], the IC50 stood at 251 µM in experiment [1], 63.9 µM in experiment [2] and 156 µM in experiment [3].
